In US5498522A, “Methods for the use of spermidine/spermine N^1 -acetyltransferase as a prognostic indicator and/or a tumor response marker” (priority 1993, dated 1996):
“Also recorded” adds a separate entry of the source.

Key:
human tumor xenografts = assay: antitumor efficacy in-vivo (general statement); conditions: compared to other bis-ethyl spermine analogs
[1] = system: LOX human melanoma xenografts; assay: antitumor response against LOX human melanoma xenografts in mice; format: in vivo
Experimental: (§1) […] where 1 represents length; w--width; and h--height. Tumor sizes were monitored 2 times/week until the median volume (V=0.4(a^2 ×b) where a is the smaller of the two perpendicular tumor diameters). As an indication of drug toxicity, animal weights were also recorded at the time of tumor volume measurement. Statistical analyses were performed on mouse tumor size and weight parameters by using the Mann-Whitney test.
(§2) Tumor growth suppression was measured by plotting the mean tumor volume versus the number of days post-inoculation with polyamine analog (growth curve analyses). Suppression is determined by comparison with the growth of untreated tumors (%T/C). More specifically,: %T/C is (treated tumor volume minus pretreatment volume) divided by (control tumor volume minus pretreatment volume)×100. Typically this is measured either when the control tumor volume reaches 1000 mm^3, or at the last day of treatment.
(§3) Tumor regression is measured as a percentage representing the average percentage of decrease in tumor volume from the largest pretreatment volume value.
(§4) Repression of regrowth is represented as regrowth delay, determined as the number of days following cessation of treatment when median group tumor volume exceeds 200 mm^3 (an arbitrary indication of regrowth which was determined statistically).
For example, SSAT activity and potency of antitumor response was examined for LOX and MALME-3 melanoma xenografts in mice. Mice developing palpable tumors of a similar size were divided into different treatment groups comprising 7 mice per treatment group, and 7 control mice per treatment group. The treated mice received 40 mg/kg of BENSPM administered every 8 hours for a 5 day period. Melanoma tumor cells comprising the human xenografts were removed from two mice of each group at 16 hours following the final BENSPM injection to evaluate the level of induction of SSAT activity. The antitumor response from polyamine analog therapy was assessed in the five remaining mice from each group by monitoring the tumor volume of the xenografts over days following treatment as compared to untreated xenografts.
(§5) For example, human melanoma cell lines including MALME-3, SH-1, PANUT-3 and LOX were evaluated for the level of SSAT induction and potency of antitumor response following BENSPM treatment (80 mg/kg 3×/day×6 days) using the methodology previously described in this embodiment. […] The baseline of SSAT activity in the control mice (2 examined of 7 mice) ranged from 50 to 90 pmol/min/mg. […] Note that following BENSPM treatment (as discussed above in the context of Tables 4 and 5), suppression of tumor growth of PANUT-3, unlike suppression of MALME-3 growth, lasted for only about 12 days. Further, the levels of SSAT in PANUT-3 at two weeks post-treatment, approached the levels in the control and correlated with the loss of antitumor activity.

[2] = system: human melanoma xenografts; assay: antitumor response, human melanoma xenografts, dose comparison and general; format: in vivo; conditions: MALME-3, SH-1, PANUT-3, LOX
Experimental: The in-vivo antitumor activities of BESPM, BEHSPM, and BENSPM, were compared against various human xenografts in nude athymic mice. Cultured human tumor cells were first passaged several times in female HSD nude athymic mice. Fragments of resultant tumor were implanted into mice via subcutaneous trocar implantation. Mice of different treatment groups were treated with one or more of the three bis-ethyl spermine analogs BESPM, BEHSPM, and BENSPM. Anti-proliferative activity was monitored by antitumor responses including tumor growth suppression, tumor regression, or repression of regrowth.
as §5

[3] = system: A549 lung adenocarcinoma xenografts; assay: antitumor response against A549 lung adenocarcinoma xenografts in mice; format: in vivo, human
Experimental: as §1, §2, §3, §4
Cells from malignant solid human tumor tissue types, other than melanoma, have also been evaluated for their responsiveness to polyamine analog treatment including clonal cell lines A121 (human ovarian adenocarcinoma),A549 (lung adenocarcinoma), and HT29 colon adenocarcinoma). These cell lines were evaluated for the level of SSAT induction and potency of antitumor response following BENSPM treatment (80 mg/kg 3×/day×6 days) in-vivo using the methodology previously described in this embodiment. Also, dose of BENSPM was compared (80 mg/kg versus 40 mg/kg). The baseline of SSAT activity in the control mice (2 of 7 mice) ranged from 40 to 90 pmol/min/mg. Tumor cells from the human xenografts A121, A549, and HT29 were removed from two mice of each treated group of seven mice containing the respective xenograft at 16 hours following the final BENSPM injection to evaluate the level of induction of SSAT activity. […] The response to the polyamine analog was heterotypic. […] As discussed previously, it is not known whether the heterotypic antitumor response may be due to either the individual properties of the clonal line or the particular solid tumor type.

[4] = system: polyamine pools of melanoma tumor; assay: polyamine pools in human melanoma xenografts in-vivo; conditions: for polyamine pools: 16 hours after final injection
[5] = system: spermidine/spermine N^1 -acetyltransferase (SSAT); assay: SSAT induction in host tissue of treated mice; format: in vivo, mouse; conditions: spleen (PANUT-3 mice), 80 mg/kg
[6] = system: ornithine decarboxylase (ODC); assay: ODC activity in human melanoma xenografts in-vivo
[7] = system: Ebey human melanoma cells; assay: growth of Ebey melanoma cells in-vitro (FIG. 5); format: cell-based; conditions: 10 μM BESPM, 48 hours
Experimental: (§6) As mentioned previously, cells from malignant solid tumor respond to polyamine analog therapy heterotypically. SSAT induction and antitumor response may vary not only among the solid tumor tissue type, but also with the clonal line of tumor of a particular solid tissue type. However, a correlation between the level of induction of SSAT and the potency of antitumor response has been observed in tumors of a particular solid tissue type. For example, seven human melanoma cell lines were assayed in-vitro for their response, as determined by cell growth and level of SSAT induction, to 10 μM BESPM at 48 hours post-treatment. As summarized in FIG. 5, growth among the cell lines decreases as SSAT induction increases.

[8] = system: NCI H157 human large cell lung carcinoma cell line; conditions: cited from earlier work
LOX human melanoma cells = assay: growth of LOX melanoma cells in-vitro (FIG. 5); format: cell-based; conditions: 10 μM BESPM, 48 hours
Experimental: as §6

polyamine uptake = conditions: cited from earlier work
[9] = A549, BENSPM 80 mg/kg 3x/d × 6d
[10] = A549 xenograft, 80 mg/kg 3×/day×6 days
[11] = MALME-3 tumor, 40 mg/kg 3x/day 6 days, 16 hrs post-treatment
[12] = MALME-3 tumor, 40 mg/kg, 2 wks post-treatment

Compound: CCNCCCNCCCNCCCNCC [BENSPM, N^1,N^11 -bis(ethyl)norspermine]
- antitumor efficacy / activity, relative (human tumor xenografts): most potent antitumor efficacy; also recorded: most potent antitumor activity
- tumor regression, regrowth delay, lack of regrowth (FIG. 6) ([1]; LOX xenograft, 40 mg/kg every 8 hours for 5 days): no significant tumor regression, regrowth delay, nor lack of regrowth
- % T/C at 1 g ([1]; LOX, BENSPM at 80 mg/kg): 40%
- Tumor Regression ([1]; LOX, BENSPM at 80 mg/kg): None
- Regrowth Delay ([1]; LOX, BENSPM at 80 mg/kg, dt 5 days): None
- No Regrowth ([1]; LOX, BENSPM at 80 mg/kg, for duration of experiment): 0/5
- antitumor response at 40 mg/kg versus 80 mg/kg [2]: very similar to the response at 80 mg/kg
- % T/C at 1 g [3, 9]: 13%
- Tumor Regression [3, 9]: no measurable tumor regression and None
- Regrowth Delay ([3]; A549, BENSPM 80 mg/kg 3x/d × 6d, dt 10 days): 8.5 × dt
- No Regrowth ([3]; A549, BENSPM 80 mg/kg 3x/d × 6d, for duration of experiment): 2/5
- growth suppression after cessation of treatment [3, 10]: 85 days
- tumor regrowth [3, 10]: minimal tumor regrowth
- PUT pool [4, 11]: 20/20
- SPD pool [4, 11]: 50/20
- SPM pool [4, 11]: 40/30
- N-acetylspermidine level [4, 12]: 240/180
- PUT pool [4, 12]: 370/290
- SPD pool [4, 12]: 560/160
- SPM pool [4, 12]: 200/80
- polyamine pools ([4]; MALME-3 tumor): almost totally depleted
- polyamine pools ([4]; PANUT-3 tumor): almost totally depleted
- SSAT activity ([5]; 2 wks post-treatment): 48/40
- SSAT activity ([5]; 16 hrs post-treatment): 163/322
- ODC levels ([6]; MALME-3 study): ODC and SAMDC levels were not suppressed
- ODC levels ([6]; PANUT-3 study): ODC and SAMDC levels were not suppressed

Compound: CCNCCCNCCCCNCCCNCC [BESPM, N^1,N^12-bis(ethyl)spermine]
- growth inhibition (FIG. 5) [7]: greatest growth inhibition
- cytotoxic response and SSAT induction [8]: associated with a high induction of SSAT
- growth inhibition (FIG. 5) (LOX human melanoma cells): least growth inhibition
- polyamine uptake (polyamine uptake): suppresses polyamine uptake
